Measured values published in patent US20050049197A1, “Induction of immune response against desired determinants” (Epimmune Inc., priority 1993, published 2005).
Non-standard residues stand in square brackets, D forms with d. Residues, ends and D or L forms follow the SMILES beside them. Cha = N[C@@H](CC1CCCCC1)C(=O)O

Experiments:
DR2w2b = tested on: DR2w2b; parameters: species or system human; conditions: read-out: Binding Activity DR2wB2, IC50
DRw53 = DRw53 (Homo sapiens, UniProt P01903+P13762); test: biochemical; format: binding
DQ3.1 = tested on: DQ3.1; parameters: species or system human; conditions: read-out: Binding Activity DQ3.1, IC50
[1] = tested on: PBMC from normal individuals; test: In vitro T cell proliferative responses of human PBMC ([3H]thymidine incorporation); format: cell-based; conditions: for AVERAGE S.I. / AVERAGE ΔMAX CPM: average of 5 donors; for X144 (Δmax cpm) / X144 S.I.: donor X144; for X162 (Δmax cpm) / X162 S.I.: donor X162; for X349 (Δmax cpm) / X349 S.I.: donor X349; for X372 (Δmax cpm) / X372 S.I.: donor X372; for X460 (Δmax cpm) / X460 S.I.: donor X460
DR5 = tested on: DR5; parameters: species or system human; conditions: read-out: Binding Activity DR5, IC50
P. yoelii sporozoites = test: Inhibition of liver stage development assay (ILSDA), mouse hepatocytes infected with P. yoelii sporozoites; format: cell-based; conditions: sera of immunized mice, dilution not stated
Experimental: In certain experiments, peptides were emulsified in complete Freund's adjuvant (CFA) and injected subcutaneously (S.C.) at the base of the tail in 100 μl volume containing 100 μg of peptide. Mice were boosted with 100 μg of peptide emulsified in 100 μl of incomplete Freund's adjuvant (IFA) 1 month later. Mice were bled just prior to boosting, and 2 weeks after boosting.
All cell culture reagents were obtained from quality Biological, Gaithersburg, Md. The slides were incubated overnight at 37° C. in a 5% CO2/95% air environment. The medium was changed the following day and fresh medium containing dexamethasone (7×10^−5) was added to the cultures.
The 17XNL (nonlethal) strain of P. yoelii or the NF54 strain of P. falciparum were used for murine and human hepatocyte in vitro infections, respectively.
Briefly, 25 μl of the serum samples, diluted to 2× their final concentration, were added to triplicate chamber-slide wells. P. yoeilli or P. falciparum sporozoites, 75,000/well, were then added in a volume of 25 μl to the mouse or human hepatocyte cultures respectively. The cultures were incubated for 3 h, then washed extensively with fresh medium to remove unattached sporozoites. The infected hepatocytes were then incubated for a further 2 (P. yoelii) or 5 days (P. falciparum) with the medium being changed each day of culture. The slides were fixed and immunostained with either a P. yoelii- or P. falciparum-specific monoclonal antibody. Schizonts were counted from the triplicate cultures and the percent inhibition determined as follows: control−test/control×100. Sera from mice injected with CFA (first dose) and IFA (second and third doses) served as the negative controls.

DR3 = tested on: DR3; parameters: species or system human; conditions: read-out: Binding Activity DR3, IC50

Sequence of DRw53 (P01903 26-254): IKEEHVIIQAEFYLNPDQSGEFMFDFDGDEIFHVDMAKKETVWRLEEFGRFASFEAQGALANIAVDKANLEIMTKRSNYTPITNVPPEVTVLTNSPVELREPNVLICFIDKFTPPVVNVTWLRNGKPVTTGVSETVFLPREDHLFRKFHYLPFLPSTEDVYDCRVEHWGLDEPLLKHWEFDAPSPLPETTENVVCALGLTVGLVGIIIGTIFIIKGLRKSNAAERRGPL
Sequence of DRw53 (P13762 30-266): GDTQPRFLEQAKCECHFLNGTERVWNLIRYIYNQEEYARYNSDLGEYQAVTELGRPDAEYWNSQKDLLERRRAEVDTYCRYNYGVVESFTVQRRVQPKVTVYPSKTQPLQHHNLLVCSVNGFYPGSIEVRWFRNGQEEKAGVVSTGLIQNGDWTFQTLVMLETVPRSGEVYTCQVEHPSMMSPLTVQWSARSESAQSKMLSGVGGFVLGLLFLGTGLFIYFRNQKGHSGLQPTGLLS

Structure (SMILES)	IC50 (DR2w2b)	IC50 (DQ3.1)	AVERAGE S.I. ([1]; 2nd Stimulation)	AVERAGE ΔMAX CPM ([1]; 2nd Stimulation)	X144 (Δmax cpm) ([1]; 2nd Stimulation)	X144 S.I. ([1]; 2nd Stimulation)	X162 (Δmax cpm) ([1]; 2nd Stimulation)	X162 S.I. ([1]; 2nd Stimulation)	X349 (Δmax cpm) ([1]; 2nd Stimulation)	X349 S.I. ([1]; 2nd Stimulation)	X372 (Δmax cpm) ([1]; 2nd Stimulation)	X372 S.I. ([1]; 2nd Stimulation)	X460 (Δmax cpm) ([1]; 2nd Stimulation)	X460 S.I. ([1]; 2nd Stimulation)	AVERAGE S.I. ([1]; 3rd Stimulation)	AVERAGE ΔMAX CPM ([1]; 3rd Stimulation)	X144 (Δmax cpm) ([1]; 3rd Stimulation)	X144 S.I. ([1]; 3rd Stimulation)	X162 (Δmax cpm) ([1]; 3rd Stimulation)	X162 S.I. ([1]; 3rd Stimulation)	also measured
CC(C)C[C@H](NC(=O)[C@@H](NC(=O)[C@H](Cc1c[nH]c2ccccc12)NC(=O)[C@H](C)NC(=O)[C@H](C)NC(=O)[C@@H](NC(=O)[C@H](CC1CCCCC1)NC(=O)[C@H](CCCCN)NC(=O)[C@H](C)N)C(C)C)[C@@H](C)O)C(=O)N[C@@H](CCCCN)C(=O)N[C@@H](C)C(=O)N[C@@H](C)C(=O)N[C@@H](C)C(N)=O [965.17]	5.9 nM	> 10000 nM	2.4	12738 cpm	17391 cpm	1.7	6323 cpm	2	26512 cpm	5.6	8471 cpm	1.3	4994 cpm	1.3	3.5	25399 cpm	32665 cpm	4.1	28065 cpm	4.1	IC50 (DRw53): 170 nM; X349 (Δmax cpm) ([1]; 3rd Stimulation): 31983 cpm; X349 S.I. ([1]; 3rd Stimulation): 4; X372 (Δmax cpm) ([1]; 3rd Stimulation): 30661 cpm; X372 S.I. ([1]; 3rd Stimulation): 3.2; X460 (Δmax cpm) ([1]; 3rd Stimulation): 3619 cpm; X460 S.I. ([1]; 3rd Stimulation): 2.2
CC(C)C[C@H](NC(=O)[C@@H](NC(=O)[C@H](C)NC(=O)[C@H](C)NC(=O)[C@H](C)NC(=O)[C@@H](NC(=O)[C@H](CC1CCCCC1)NC(=O)[C@H](CCCCN)NC(=O)[C@@H](C)N)C(C)C)[C@@H](C)O)C(=O)N[C@@H](CCCCN)C(=O)N[C@@H](C)C(=O)N[C@@H](C)C(=O)N[C@H](C)C(N)=O [965.16]	6.1 nM	> 10000 nM	1.3	1843 cpm	4388 cpm	1.2	4090 cpm	2.1	0 cpm	1	736 cpm	1	0 cpm	1	1.5	5955 cpm	5220 cpm	1.5	4762 cpm	1.9	IC50 (DR5): 16.7 nM; X349 (Δmax cpm) ([1]; 3rd Stimulation): 9316 cpm; X349 S.I. ([1]; 3rd Stimulation): 1.6; X372 (Δmax cpm) ([1]; 3rd Stimulation): 10439 cpm; X372 S.I. ([1]; 3rd Stimulation): 1.7; X460 (Δmax cpm) ([1]; 3rd Stimulation): 37 cpm; X460 S.I. ([1]; 3rd Stimulation): 1
CC(C)C[C@H](NC(=O)[C@@H](NC(=O)[C@H](Cc1c[nH]c2ccccc12)NC(=O)[C@H](C)NC(=O)[C@H](C)NC(=O)[C@@H](NC(=O)[C@H](CC1CCCCC1)NC(=O)[C@H](CCCCN)NC(=O)[C@@H](C)N)C(C)C)[C@@H](C)O)C(=O)N[C@@H](CCCCN)C(=O)N[C@@H](C)C(=O)N[C@H](C)C(=O)N[C@@H](CCC(N)=O)C(=O)NCC(=O)N1CCC[C@H]1C(=O)NCC(=O)N[C@@H](C)C(=O)N1CCC[C@H]1C(=O)N[C@@H](CCC(N)=O)C(=O)NCC(=O)N1CCC[C@H]1C(=O)NCC(=O)N[C@@H](C)C(=O)N1CCC[C@H]1C(=O)N[C@@H](CCC(N)=O)C(=O)NCC(=O)N1CCC[C@H]1C(=O)NCC(=O)N[C@@H](C)C(=O)N1CCC[C@H]1C(=O)N[C@@H](CCC(N)=O)C(=O)NCC(=O)N1CCC[C@H]1C(=O)NCC(=O)N[C@@H](C)C(=O)N1CCC[C@H]1C(=O)NCC(=O)NCC(=O)N[C@@H](CO)C(=O)O [PADRE ®-PyB, aKXVAAWTLKAa(QGPGAP)4GGS] (H-[dA]K[Cha]VAAWTLKA[dA]QGPGAPQGPGAPQGPGAPQGPGAPGGS-OH; N-terminus and C-terminus assumed)	–	–	–	–	–	–	–	–	–	–	–	–	–	–	–	–	–	–	–	–	inhibition of P. yoelii sporozoite invasion and development in murine hepatocytes (P. yoelii sporozoites): approximately 90%
CC(C)C[C@H](NC(=O)[C@@H](NC(=O)[C@H](CC(N)=O)NC(=O)[C@H](C)NC(=O)[C@H](C)NC(=O)[C@@H](NC(=O)[C@H](CC1CCCCC1)NC(=O)[C@H](CCCCN)NC(=O)[C@@H](C)N)C(C)C)[C@@H](C)O)C(=O)N[C@@H](CCCCN)C(=O)N[C@@H](C)C(=O)N[C@@H](C)C(=O)N[C@H](C)C(N)=O [965.08]	3.8 nM	> 10000 nM	1.7	11208 cpm	8440 cpm	1.3	9234 cpm	2.6	9065 cpm	1.8	23017 cpm	1.6	6286 cpm	1.4	2	12070 cpm	3559 cpm	1.4	14622 cpm	2.3	IC50 (DR3): 250 nM; IC50 (DR5): 8 nM; X349 (Δmax cpm) ([1]; 3rd Stimulation): 31639 cpm; X349 S.I. ([1]; 3rd Stimulation): 2.8; X372 (Δmax cpm) ([1]; 3rd Stimulation): 8710 cpm; X372 S.I. ([1]; 3rd Stimulation): 1.9; X460 (Δmax cpm) ([1]; 3rd Stimulation): 1820 cpm; X460 S.I. ([1]; 3rd Stimulation): 1.6
CC(C)C[C@H](NC(=O)[C@@H](NC(=O)[C@H](Cc1c[nH]cn1)NC(=O)[C@H](C)NC(=O)[C@H](C)NC(=O)[C@@H](NC(=O)[C@H](CC1CCCCC1)NC(=O)[C@H](CCCCN)NC(=O)[C@@H](C)N)C(C)C)[C@@H](C)O)C(=O)N[C@@H](CCCCN)C(=O)N[C@@H](C)C(=O)N[C@@H](C)C(=O)N[C@H](C)C(N)=O [965.15]	5.4 nM	> 10000 nM	1.8	7920 cpm	7179 cpm	1.4	8461 cpm	3.4	10848 cpm	1.8	10011 cpm	1.3	3100 cpm	1.2	2.5	15462 cpm	13055 cpm	2.4	12309 cpm	1.6	IC50 (DR3): 1390 nM; IC50 (DR5): 29.9 nM; IC50 (DRw53): 79.2 nM; X349 (Δmax cpm) ([1]; 3rd Stimulation): 20653 cpm; X349 S.I. ([1]; 3rd Stimulation): 2.4; X372 (Δmax cpm) ([1]; 3rd Stimulation): 30810 cpm; X372 S.I. ([1]; 3rd Stimulation): 4.7; X460 (Δmax cpm) ([1]; 3rd Stimulation): 486 cpm; X460 S.I. ([1]; 3rd Stimulation): 1.2
